The record followed here is patent publication US10544132B2, “Isoindolinone inhibitors of the MDM2-p53 interaction having anticancer activity” (ASTEX THERAPEUTICS LIMITED, priority 2015, dated 2020).

The test system of test [1] is SN40R2 cells. Nature of the test: SN40R2 growth inhibition, sulphorhodamine B (SRB) method (Protocol A). Conditions: 72 h, read-out: SN40R2 IC50 (μM) (Protocol A). A general note: In SRB staining, fixed cells bind dye roughly in proportion to their protein.
The test system of test [2] is SJSA-1 cells. Nature of the test: SJSA-1 growth inhibition, sulphorhodamine B (SRB) method (Protocol A). The following applies: Homo sapiens, SJSA-1, 72 h, read-out: SJSA-1 IC50 (μM) (Protocol A).
For test [3], the target named is MDM2-p53 interaction (Homo sapiens (Human), UniProt Q00987). Description: MDM2-p53 interaction 96-well plate binding assay (ELISA). A general note: An ELISA detects its analyte on a solid surface through an enzyme-linked reagent.
MDM2-p53 interaction, sequence (Q00987 whole entry): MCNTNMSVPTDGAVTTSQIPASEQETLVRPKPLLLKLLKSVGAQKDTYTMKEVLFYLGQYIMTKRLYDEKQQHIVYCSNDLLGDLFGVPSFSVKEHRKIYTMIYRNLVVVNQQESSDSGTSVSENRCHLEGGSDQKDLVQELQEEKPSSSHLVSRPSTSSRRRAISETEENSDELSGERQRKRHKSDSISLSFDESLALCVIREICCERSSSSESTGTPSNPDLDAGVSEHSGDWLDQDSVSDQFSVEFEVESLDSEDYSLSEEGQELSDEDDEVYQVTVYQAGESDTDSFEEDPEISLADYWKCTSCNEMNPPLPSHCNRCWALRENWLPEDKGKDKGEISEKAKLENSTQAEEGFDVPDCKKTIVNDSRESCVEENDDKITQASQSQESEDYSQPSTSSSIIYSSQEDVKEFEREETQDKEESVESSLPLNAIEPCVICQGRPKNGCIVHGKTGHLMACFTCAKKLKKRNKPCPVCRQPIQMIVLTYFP

The structures appear in SMILES notation.

With `CC(C)(O)c1cc(F)c2c(c1)C(=O)N(Cc1ccc(Cl)cc1)[C@@]2(OCC1(CO)CC1)c1ccc(Cl)cc1` [Example 2, (3R)-3-(4-chlorophenyl)-2-[(4-chlorophenyl)methyl]-4-fluoro-3-{[1-(hydroxymethyl)cyclopropyl]methoxy}-6-(2-hydroxypropan-2-yl)-2,3-dihydro-1H-isoindol-1-one], in test [1], the IC50 (commonly the concentration needed to halve the response being measured) is 17 µM.

Turning to `[2H]C([2H])(O)C1(C([2H])([2H])O[C@]2(c3ccc(Cl)cc3)c3ccc(C(C)(C)O)cc3C(=O)N2Cc2ccc(Cl)cc2S(C)(=O)=O)CC1` [Example 36, (3R)-2-[(4-chloro-2-methanesulfonylphenyl)methyl]-3-(4-chlorophenyl)-3-({1-[hydroxy(^2H2)methyl]cyclopropyl}(^2H2)methoxy)-6-(2-hydroxypropan-2-yl)-2,3-dihydro-1H-isoindol-1-one], the IC50 came to 0.078 µM in test [2], 0.0019 µM in test [3] and 17 µM in test [1].
